# Assay results published in ChEMBL document CHEMBL3638598, “Pyrazolo pyrimidine derivatives” (2014).
# Molecular target: G-prodeshotein coupled receptor 4 (Homo sapiens, UniProt P46093)
# Assay: Radio Ligand Binding Assay: Serial dilutions of compounds (stock in 10 mM DMSO) are prepared by first diluting the compounds in DMSO followed by a 1:50 dilution into assay buffer (10 mM HEPES, pH 8.0, 100 mM NaCl, 5 mM MgCl2, 1 mM CaCl2, 0.5% fatty acid-free BSA, 0.05% Tween-20). […] The desired amount of membranes (20 μg/well) is diluted with assay buffer. […] 100 μL of the membrane-suspension is added and the plate stirred for 60 minutes.
# Chain of G-prodeshotein coupled receptor 4 (P46093 whole entry): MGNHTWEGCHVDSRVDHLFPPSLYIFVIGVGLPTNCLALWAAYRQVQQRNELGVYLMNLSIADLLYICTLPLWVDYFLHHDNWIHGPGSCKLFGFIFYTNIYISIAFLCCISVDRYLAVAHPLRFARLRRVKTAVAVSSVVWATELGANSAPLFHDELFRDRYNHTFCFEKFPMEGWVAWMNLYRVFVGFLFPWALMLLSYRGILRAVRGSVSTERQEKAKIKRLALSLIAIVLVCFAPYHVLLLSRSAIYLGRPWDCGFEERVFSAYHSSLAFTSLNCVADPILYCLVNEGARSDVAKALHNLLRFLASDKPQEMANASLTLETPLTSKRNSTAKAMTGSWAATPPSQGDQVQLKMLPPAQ
row,Compound,IC50 [µM]
1,CCc1nn2c(C)cc(C)nc2c1Cc1ccc(OCC2CCNCC2)cc1,0.022
2,CCc1nn2c(C)cc(C)nc2c1Cc1ccc(OC[C@H]2CC[C@@H](N)CC2)cc1,0.035
3,CCc1nn2c(C)cc(C)nc2c1Cc1ccc(OC[C@H]2CC[C@@H](NC(=O)[C@H]3NCC[C@H]3O)CC2)cc1,0.054
